{"source": "paper PMC6026870", "about": "“Selective induction of cancer cell death by VDAC1‐based peptides and their potential use in cancer therapy” (Molecular Oncology, 2018)", "key": {"[1]": {"tested_on": "HeLa cells (HK‐I in cytosolic fraction)", "assay": "Mitochondria‐bound HK detachment, cell fractionation and immunoblotting", "format": "cell-based, human", "conditions": "peptide 3, 5, 10 μM, 3 h, digitonin […], immunoblot (Fig. 4E)", "protocol": "Peptide‐induced HK detachment from mitochondria to the cytosol was also analyzed by immunoblotting. […] Samples were centrifuged at 12 000 g at 4 °C for 10 min, and the obtained supernatants (cytosolic fraction) and pellets (mitochondria) were analyzed by immunoblotting using anti‐HK‐I, anti‐VDAC1, and anti‐GAPDH antibodies, and then with secondary HRP‐conjugated antibodies."}, "[2]": {"tested_on": "HeLa cells", "assay": "Cellular ATP levels, luciferase‐based assay (CellTiter‐Glo)", "format": "cell-based, human", "conditions": "3 h, percentage of control, mean ± SE (n = 3) (Fig. 4F)", "protocol": "Cellular ATP levels were estimated using a luciferase‐based assay (CellTiter‐Glo; Promega). […] ATP levels were assayed according to the manufacturer's protocol, and luminescence was recorded using an Infinite M1000 plate reader (Tecan, Männedorf, Switzerland)."}, "[3]": {"tested_on": "A549 cells", "assay": "Apoptosis, acridine orange/ethidium bromide staining", "format": "cell-based, human", "conditions": "A549, 3 h; quantitation, mean ± SE (n = 3) (Fig. 5E)", "protocol": "For PI and annexin V–FITC staining, A549 or MDA‐MB‐231 cells, untreated or treated with VDAC1‐based peptides, were collected (1500 g for 5 min), washed, and resuspended in 200 μL binding buffer (10 mM HEPES/NaOH (pH 7.4), 140 mM NaCl, and 2.5 mM CaCl2). Annexin V–FITC staining was performed according to the recommended protocol. Cells were then washed once with binding buffer and resuspended in 200 μL binding buffer, to which PI was added immediately before flow cytometric analysis. At least 10 000 events were collected, recorded on a dot plot, and analyzed by flow cytometer. Acridine orange/ethidium bromide staining was carried as described previously (Zaid et al., 2005), with cells visualized by fluorescence microscopy (Olympus LX2‐KSP, Tokyo, Japan), and images were captured with a CCD camera. About 200 cells were counted for each experiment."}, "[4]": {"target": "T1, HK‐I (Homo sapiens, UniProt P19367)", "T1 construct": "His; made in house; host or cells: Escherichia coli BL21", "T1 sequence (P19367 1-917)": "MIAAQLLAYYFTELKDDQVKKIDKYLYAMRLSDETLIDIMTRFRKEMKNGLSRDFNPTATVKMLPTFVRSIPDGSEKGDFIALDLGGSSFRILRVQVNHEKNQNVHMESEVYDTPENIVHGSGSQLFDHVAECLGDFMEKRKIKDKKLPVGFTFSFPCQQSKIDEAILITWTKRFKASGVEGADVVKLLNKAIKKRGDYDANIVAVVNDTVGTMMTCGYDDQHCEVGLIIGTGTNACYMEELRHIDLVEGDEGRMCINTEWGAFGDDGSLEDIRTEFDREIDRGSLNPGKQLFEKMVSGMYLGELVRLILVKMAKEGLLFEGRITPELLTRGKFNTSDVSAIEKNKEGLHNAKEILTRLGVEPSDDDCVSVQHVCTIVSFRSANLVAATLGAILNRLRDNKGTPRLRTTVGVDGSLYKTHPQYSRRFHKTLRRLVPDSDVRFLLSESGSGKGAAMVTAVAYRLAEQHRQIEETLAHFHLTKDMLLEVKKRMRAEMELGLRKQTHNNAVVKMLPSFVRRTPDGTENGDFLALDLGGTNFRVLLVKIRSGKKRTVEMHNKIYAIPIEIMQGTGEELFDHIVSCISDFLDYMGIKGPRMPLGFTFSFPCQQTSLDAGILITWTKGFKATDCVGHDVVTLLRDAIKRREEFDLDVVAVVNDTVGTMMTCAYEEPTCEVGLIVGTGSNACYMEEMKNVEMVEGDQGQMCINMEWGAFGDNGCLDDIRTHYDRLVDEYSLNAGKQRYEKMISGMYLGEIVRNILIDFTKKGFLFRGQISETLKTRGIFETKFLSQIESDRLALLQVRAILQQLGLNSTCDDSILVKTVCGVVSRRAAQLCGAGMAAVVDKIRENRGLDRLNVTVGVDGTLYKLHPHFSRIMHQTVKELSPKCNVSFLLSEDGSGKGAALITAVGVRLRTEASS", "assay": "HK activity assay with purified recombinant HK‐I", "format": "biochemical", "conditions": "HK‐I 13 µg/ml pre‐incubated with peptide; 1 mM ATP, G6PDH‐coupled, absorbance at 340 nm (Fig. S3B)", "protocol": "Human HK‐I and HK‐II were cloned into plasmid pET‐His DNA and expressed in Escherichia coli BL21 upon IPTG induction. HK was purified from lysed cells using a HiTrap nickel column (GE Healthcare). Following dialysis, the imidazole‐eluted protein was further purified using a Blue HiTrap column (GE Healthcare). HK was eluted using 10 mM glucose, 20 mM Tris/HCl (pH 8.5), 20% glycerol, and 1.5 mM glucose‐6‐phosphate. Fractions were analyzed by SDS/PAGE and tested for HK activity. The purified active fractions were combined and stored in aliquots at −80 °C.\nChange in absorbance at 340 nm (NADH production) was spectrophotometrically measured following addition of 1 mM ATP and 0.05 unit·mL^−1 glucose‐6‐phosphate dehydrogenase.\nPurified HK-I (13 µg/ml) was pre-incubated with the indicated concentrations of Tf-D-LP4 (●) or R-Tf-D-LP4 (○) and assayed for HK activity as described in Materials and Methods. Change in absorbance at 340 nm (NADH production) was spectrophotometrically measured following addition of 1 mM ATP, and 0.05 unit/ml glucose-6-phosphate dehydrogenase. C. Tf-D-LP4 and R-Tf-D-LP4 solubility. The peptides were dissolved to a final concentration of 5 mM in 5% DMSO and diluted to 1.1 mM in HBSS. Peptide absorbance in the supernatant was measured at 280 nm following centrifugation at 12,000g before and after 75 min incubation at 24 °C. […] Cell death was analyzed using PI and FACS analysis. […]"}}, "data": [{"molecule": "CC[C@H](C)[C@H](NC(=O)[C@H](Cc1ccc(O)cc1)NC(=O)[C@@H]1CCCN1C(=O)[C@H](CCCNC(=N)N)NC(=O)[C@H](Cc1c[nH]cn1)NC(=O)[C@@H](CO)NC(=O)[C@@H](Cc1c[nH]c2ccccc12)NC(=O)[C@H](NC(=O)[C@@H](Cc1c[nH]c2ccccc12)NC(=O)[C@@H](CCC(=O)O)NC(=O)[C@@H](CCCCN)NC(=O)[C@@H](CCCCN)NC(=O)[C@@H](CC(C)C)NC(=O)[C@@H](CCC(=O)O)NC(=O)[C@H](NC(=O)[C@@H](C)NC(=O)[C@H](NC(=O)[C@@H](CC(N)=O)NC(=O)[C@@H](CC(C)C)NC(=O)[C@@H](C)NC(=O)[C@@H](Cc1c[nH]c2ccccc12)NC(=O)[C@H](NC(=O)[C@@H](C)NC(=O)CNC(=O)[C@@H](CC(N)=O)NC(=O)[C@@H](CO)NC(=O)[C@@H](CC(N)=O)NC(=O)[C@@H](CCCCN)NC(=O)[C@@H](Cc1c[nH]c2ccccc12)NC(=O)[C@H](NC(=O)[C@@H](Cc1c[nH]c2ccccc12)NC(=O)[C@H](N)CCCCN)[C@H](C)O)[C@H](C)O)C(C)C)[C@H](C)O)[C@H](C)O)C(=O)N[C@@H](C)C(=O)N[C@@H](Cc1c[nH]cn1)C(=O)O", "note": "[R‐Tf‐D‐LP4]", "values": [{"measurement": "increase in HK in the cytosolic fraction", "setting": "[1]", "value": "about twofold"}, {"measurement": "decrease of cellular ATP levels", "setting": "[2]", "value": "about 40%"}, {"measurement": "apoptotic cell death (acridine orange/ethidium bromide)", "setting": "[3]", "value": "over 70%"}, {"measurement": "inhibition of purified HK‐I activity", "setting": "[4]", "value": "inhibits HK-I activity"}]}]}
